According to patent US11845724B2, “USP30 inhibitors and uses thereof” (Vincere Biosciences, Inc., priority 2019, dated 2023):
Like-named read-outs stand apart in the source and are kept apart here.

Assays:
USP30 = USP30 (Homo sapiens (Human), UniProt Q70CQ3); assay: Dundee MALDI-TOF mass spectrometry assay (IC50); type: biochemical; details: USP30 25 ng/μl, K48-linked diubiquitin 5.6 μM, avg, read-out: Dundee IC50 μM (avg in vitro MS assay)
Procedure: Compounds were tested in a MALDI-TOF assay based on the paper by Ritorto et al. (Ritorto et al. Screening of DUB activity and specificity by MALDI-TOF mass spectrometry. Nat. […] USP30 (25 ng/μl) tested against K48-linked diubiquitin (5.6 μM). USP30 was diluted in a buffer containing 40 mM Tris, 0.01% BSA, 1 mM DTT and K48 in 40 mM Tris, 0.01% BSA. The compounds were pre-incubated with the USP30 for 5 mins at room temp before the K48 dimer addition. The assay mixture was then incubated for 45 mins at room temp. The assay was stopped by the addition of TFA to a final concentration of 2% (v/v). […] Then 250 nl of these solutions were spotted onto an MTP AnchorChip 1,536 TF and this is analysed on the Bruker rapifleX MALDI-TOF.

[1] = target: recombinant USP30 (amino acids 57-517 of the human sequence) (Homo sapiens (Human), UniProt Q70CQ3); assay: In vitro USP30 biochemical assay (Ubiquitin-Rhodamine)
recombinant USP30 (amino acids 57-517 of the human sequence), sequence (Q70CQ3 57-517): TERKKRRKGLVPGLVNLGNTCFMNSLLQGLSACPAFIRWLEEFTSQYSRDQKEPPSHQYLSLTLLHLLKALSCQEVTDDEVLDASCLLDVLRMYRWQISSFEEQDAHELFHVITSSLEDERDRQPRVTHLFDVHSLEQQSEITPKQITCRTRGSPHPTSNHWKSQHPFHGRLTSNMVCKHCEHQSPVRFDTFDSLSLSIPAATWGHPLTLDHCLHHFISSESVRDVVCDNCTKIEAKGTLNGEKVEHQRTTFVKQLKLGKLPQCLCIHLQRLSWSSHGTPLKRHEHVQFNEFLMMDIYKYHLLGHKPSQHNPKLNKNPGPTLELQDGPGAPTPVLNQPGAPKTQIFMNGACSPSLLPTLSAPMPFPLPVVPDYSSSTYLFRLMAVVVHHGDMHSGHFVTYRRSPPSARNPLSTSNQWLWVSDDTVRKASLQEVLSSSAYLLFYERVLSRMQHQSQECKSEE

[2] = read-out: USP30 IC50 μM (avg), Ubiquitin-Rhodamine substrate 25 nM, 1.5 nM recombinant USP30
[3] = USP30 IC50 μM (avg), Ubiquitin-Rhodamine substrate 25 nM, 1.5 nM recombinant USP30

USP30, sequence (Q70CQ3 whole entry): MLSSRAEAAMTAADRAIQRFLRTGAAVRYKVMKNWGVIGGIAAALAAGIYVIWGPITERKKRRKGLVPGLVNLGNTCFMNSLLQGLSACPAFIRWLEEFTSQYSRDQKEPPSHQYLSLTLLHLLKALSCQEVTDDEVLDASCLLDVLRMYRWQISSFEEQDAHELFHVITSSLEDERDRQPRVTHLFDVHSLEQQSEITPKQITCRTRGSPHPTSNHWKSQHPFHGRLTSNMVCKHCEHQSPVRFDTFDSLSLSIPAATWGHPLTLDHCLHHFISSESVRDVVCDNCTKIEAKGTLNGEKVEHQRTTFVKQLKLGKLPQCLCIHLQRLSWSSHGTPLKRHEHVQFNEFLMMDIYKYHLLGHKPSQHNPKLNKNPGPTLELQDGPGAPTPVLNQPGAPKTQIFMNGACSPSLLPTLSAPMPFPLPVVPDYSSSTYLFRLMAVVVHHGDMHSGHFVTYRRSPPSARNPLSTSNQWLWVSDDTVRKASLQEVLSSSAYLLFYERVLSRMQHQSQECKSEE

IC50 (USP30) [µM]	IC50 [1, 2] [µM]	IC50 [1, 3] [µM]	Structure (SMILES)
1 to 10	> 10		CN(C(=O)c1ccc(F)cc1)[C@@H](Cc1cccnc1)C(=O)Nc1ccc(S(=O)(=O)NC2COC2)cc1 [Compound I-89, (S)-4-fluoro-N-methyl-N-(1-(4-(N-oxetan-3-ylsulfamoyl)phenylamino)-1-oxo-3-(pyridin-3-yl)propan-2-yl)benzamide]
1 to 10		0.05 to 1	CN(C)CCNS(=O)(=O)c1ccc(NC(=O)[C@H](Cc2ccccc2)NC(=O)c2ccc(F)cc2)cc1 [Compound I-133, (S)-N-(1-(4-(N-(2-(dimethylamino)ethyl)sulfamoyl)phenylamino)-1-oxo-3-phenylpropan-2-yl)-4-fluorobenzamide]
< 0.05	< 0.05		CC1(NS(=O)(=O)c2ccc(NC(=O)[C@H](Cc3ccccc3)NC(=O)c3ccc(F)cc3)cc2)COC1 [Compound I-136, (S)-4-fluoro-N-(1-(4-(N-(3-methyloxetan-3-yl)sulfamoyl)phenylamino)-1-oxo-3-phenylpropan-2-yl)benzamide]
0.05 to 1		0.05 to 1	COc1cc(S(=O)(=O)NC2COC2)ccc1NC(=O)[C@H](Cc1ccccc1)NC(=O)c1ccc(F)cc1 [Compound I-144, (S)-4-fluoro-N-(1-(2-methoxy-4-(N-oxetan-3-ylsulfamoyl)phenylamino)-1-oxo-3-phenylpropan-2-yl)benzamide]
< 0.05		0.05 to 1	COCCNS(=O)(=O)c1ccc(NC(=O)[C@H](Cc2ccccc2)NC(=O)c2ccc(F)cc2)cc1 [Compound I-132, (S)-4-fluoro-N-(1-(4-(N-(2-methoxyethyl)sulfamoyl)phenylamino)-1-oxo-3-phenylpropan-2-yl)benzamide]
< 0.05		0.05 to 1	C[C@H](NS(=O)(=O)c1ccc(NC(=O)[C@H](Cc2ccccc2)NC(=O)c2ccc(F)cc2)cc1)C(F)(F)F [Compound I-13, 4-fluoro-N-((S)-1-oxo-3-phenyl-1-(4-(N-((S)-1,1,1-trifluoropropan-2-yl)sulfamoyl)phenylamino)propan-2-yl)benzamide]
0.05 to 1	< 0.05		CC(C)(C)NS(=O)(=O)c1ccc(NC(=O)[C@H](Cc2ccccc2)NC(=O)c2ccc(F)cn2)cc1 [Compound I-85, (S)-N-(1-(4-(N-tert-butylsulfamoyl)phenylamino)-1-oxo-3-phenylpropan-2-yl)-5-fluoropicolinamide]
0.05 to 1		0.05 to 1	O=C(N[C@@H](Cc1ccccc1)C(=O)Nc1ccc(S(=O)(=O)NCCO)cn1)c1ccc(F)cc1 [Compound I-121, (S)-4-fluoro-N-(1-(5-(N-(2-hydroxyethyl)sulfamoyl)pyridin-2-ylamino)-1-oxo-3-phenylpropan-2-yl)benzamide]
0.05 to 1		0.05 to 1	O=C(N[C@@H](Cc1ccccc1)C(=O)Nc1ccc(S(=O)(=O)NCCCN2CCOCC2)cn1)c1ccc(F)cc1 [Compound I-123, (S)-4-fluoro-N-(1-(5-(N-(3-morpholinopropyl)sulfamoyl)pyridin-2-ylamino)-1-oxo-3-phenylpropan-2-yl)benzamide]
0.05 to 1		0.05 to 1	O=C(N[C@@H](Cc1ccccc1)C(=O)Nc1ccc(S(=O)(=O)NC2CCC2)cc1)c1cccnc1 [Compound I-81, (S)-N-(1-(4-(N-cyclobutylsulfamoyl)phenylamino)-1-oxo-3-phenylpropan-2-yl)nicotinamide]
0.05 to 1		0.05 to 1	CCNS(=O)(=O)c1ccc(NC(=O)[C@H](Cc2ccccc2)NC(=O)c2ccc(F)cc2)c(F)c1 [Compound I-157, (S)-N-(1-(4-(N-ethylsulfamoyl)-2-fluorophenylamino)-1-oxo-3-phenylpropan-2-yl)-4-fluorobenzamide]
0.05 to 1		0.05 to 1	O=C(N[C@@H](Cc1ccccc1)C(=O)Nc1ccc(S(=O)(=O)NC2CCCC2)cc1)c1ccccn1 [Compound I-77, (S)-N-(1-(4-(N-cyclopentylsulfamoyl)phenylamino)-1-oxo-3-phenylpropan-2-yl)picolinamide]
< 0.05	< 0.05		CC(C)(CF)NS(=O)(=O)c1ccc(NC(=O)[C@H](Cc2ccccc2)NC(=O)c2ccc(F)cc2)cc1 [Compound I-10, (S)-4-Fluoro-N-(1-(4-(N-(1-fluoro-2-methylpropan-2-yl)sulfamoyl)phenylamino)-1-oxo-3-phenylpropan-2-yl)benzamide]
1 to 10		1 to 10	CC(C)(C)NS(=O)(=O)N1CCCc2c(NC(=O)[C@H](Cc3ccccc3)NC(=O)C3CCCCC3)cccc21 [Compound I-129, (S)-N-(1-(1-(N-tert-butylsulfamoyl)-1,2,3,4-tetrahydroquinolin-5-ylamino)-1-oxo-3-phenylpropan-2-yl)cyclohexanecarboxamide]
0.05 to 1		0.05 to 1	CCNS(=O)(=O)c1ccc(NC(=O)[C@H](Cc2ccccc2)NC(=O)c2ccc(F)cc2)cn1 [Compound I-105, (S)-N-(1-(6-(N-ethylsulfamoyl)pyridin-3-ylamino)-1-oxo-3-phenylpropan-2-yl)-4-fluorobenzamide]
0.05 to 1		0.05 to 1	Cc1cc(NC(=O)[C@H](Cc2ccccc2)NC(=O)c2ccc(F)cn2)ccc1S(=O)(=O)NC12CC(C1)C2 [Compound I-98, (S)-N-(1-(4-(N-bicyclo[1.1.1]pentan-1-ylsulfamoyl)-3-methylphenylamino)-1-oxo-3-phenylpropan-2-yl)-5-fluoropicolinamide]
< 0.05	< 0.05		CC(C)(C)NS(=O)(=O)c1ccc(NC(=O)[C@H](Cc2ccccc2)NC(=O)c2ccc(F)cc2)cc1F [Compound I-156, (S)-N-(1-(4-(N-tert-butylsulfamoyl)-3-fluorophenylamino)-1-oxo-3-phenylpropan-2-yl)-4-fluorobenzamide]
0.05 to 1		1 to 10	O=C(N[C@@H](Cc1ccccc1)C(=O)Nc1ccc(S(=O)(=O)NC23CC(C2)C3)cc1)c1ccccn1 [Compound I-76, (S)-N-(1-(4-(N-bicyclo[1.1.1]pentan-1-ylsulfamoyl)phenylamino)-1-oxo-3-phenylpropan-2-yl)picolinamide]
1 to 10		1 to 10	CN(C(=O)c1ccc(F)cc1)[C@@H](Cc1ccccc1)C(=O)Nc1ccc(S(=O)(=O)NC2COC2)cc1 [Compound I-70, (S)-4-fluoro-N-methyl-N-(1-(4-(N-oxetan-3-ylsulfamoyl)phenylamino)-1-oxo-3-phenylpropan-2-yl)benzamide]
0.05 to 1		1 to 10	O=C(N[C@@H](Cc1ccccc1)C(=O)Nc1ccc(S(=O)(=O)NC2CCC2)cc1)c1ccccn1 [Compound I-78, (S)-N-(1-(4-(N-cyclobutylsulfamoyl)phenylamino)-1-oxo-3-phenylpropan-2-yl) picolinamide]
0.05 to 1		0.05 to 1	CCNS(=O)(=O)c1ccc(NC(=O)[C@H](Cc2ccccn2)NC(=O)c2ccc(F)cc2)cc1 [Compound I-139, (S)-N-(1-(4-(N-ethylsulfamoyl)phenylamino)-1-oxo-3-(pyridin-2-yl)propan-2-yl)-4-fluorobenzamide]
0.05 to 1		0.05 to 1	O=C(N[C@@H](Cc1ccccc1)C(=O)Nc1ccc(S(=O)(=O)NCCN2CCOCC2)cn1)c1ccc(F)cc1 [Compound I-122, (S)-4-fluoro-N-(1-(5-(N-(2-morpholinoethyl)sulfamoyl)pyridin-2-ylamino)-1-oxo-3-phenylpropan-2-yl)benzamide]
< 0.05		0.05 to 1	COc1cc(NC(=O)[C@H](Cc2ccccc2)NC(=O)c2ccc(F)cc2)ccc1S(=O)(=O)NC1COC1 [Compound I-147, (S)-4-fluoro-N-(1-(3-methoxy-4-(N-oxetan-3-ylsulfamoyl)phenylamino)-1-oxo-3-phenylpropan-2-yl)benzamide]
< 0.05		0.05 to 1	COCC(C)(C)NS(=O)(=O)c1ccc(NC(=O)[C@H](Cc2ccccc2)NC(=O)c2ccc(F)cc2)cc1OC [Compound I-149, (S)-4-fluoro-N-(1-(3-methoxy-4-(N-(1-methoxy-2-methylpropan-2-yl)sulfamoyl)phenylamino)-1-oxo-3-phenylpropan-2-yl)benzamide]
0.05 to 1		0.05 to 1	O=C(N[C@@H](Cc1ccccn1)C(=O)Nc1ccc(S(=O)(=O)NC23CC(C2)C3)cc1)c1ccc(F)cc1 [Compound I-141, (S)-N-(1-(4-(N-bicyclo[1.1.1]pentan-1-ylsulfamoyl)phenylamino)-1-oxo-3-(pyridin-2-yl)propan-2-yl)-4-fluorobenzamide]
0.05 to 1	> 10		O=C(NC1(C(=O)Nc2ccc(S(=O)(=O)NC34CC(C3)C4)cc2)Cc2ccccc2C1)c1ccc(F)cc1 [Compound I-102, N-(4-(N-bicyclo[1.1.1]pentan-1-ylsulfamoyl)phenyl)-2-(4-fluorobenzamido)-2,3-dihydro-1H-indene-2-carboxamide]
< 0.05	< 0.05		CC(C)(NS(=O)(=O)c1ccc(NC(=O)[C@H](Cc2ccccc2)NC(=O)c2ccc(F)cc2)cc1)C(F)(F)F [Compound I-25, (S)-4-fluoro-N-(1-oxo-3-phenyl-1-(4-(N-(1,1,1-trifluoro-2-methylpropan-2-yl)sulfamoyl)phenylamino)propan-2-yl)benzamide]
